US20060057673A1, “Epitope analogs” (priority 2004, published 2006)
Where a SMILES comes first, the peptide text is derived from it. [ ]: non-standard residue; d: D form. Cha = N[C@@H](CC1CCCCC1)C(=O)O

How the values were obtained:
HLA-A*0201 [1] = target: T1, HLA-A*0201 (Homo sapiens, UniProt P04439, D140Y/D185E/D98H/E176V/E277Q/G131W/G231S/I119V/I121R/I166T/I218V/L300P/L318F/N151K/N90K/P208A/P217A/Q86G/Q94H/R138H/R169H/T345S); assay: Peptide binding using T2 cells; set-up: endogenous in cells; host or cells: T2 cells; conditions: T2 cells pulsed overnight at 37° C.; peptide concentration giving 50% of saturation signal; N/B printed, not defined
HLA-A*0201 [2] = target: T1, HLA-A*0201; assay: iTopia binding assay (% binding); conditions: % binding compared to positive control melan-A26-35 A27L
Text: Avidin-coated microtiter plates containing class I monomer loaded with a so-called placeholder peptide were used to evaluate peptide binding, affinity and off-rate. The monomer-coated plates were supplied as part of the iTopia Epitope Discovery System Kit (Beckman Ciulter, Inc., San Diego, Calif., USA). Assay buffers, anti-MHC-FITC mAb and beta2-microglobulin and control peptides were also supplied with the kits.
This assay measures the ability of individual peptides to bind HLA molecules under standardized optimal binding conditions. Monomer-coated plates were first stripped, releasing the placeholder peptide and leaving only the MHC heavy chain bound to the plate. Test peptides were then introduced under optimal folding conditions, along with the anti-MRC-FITC mAb. Plates were incubated for 18hrs at 21° C. The anti-MHC-FITC mAb binds preferentially to a refolded MHC complex. Therefore, the fluorescence intensity resulted from each peptide was related to the peptide's ability to form complex with MHC molecule. Each peptide's binding was evaluated relative to the positive control peptide provided in the kit, and the results were expressed ‘% binding’.

[3] = test system: target cells loaded with native PRAME425-433 peptide; assay: In vivo cytotoxicity against native PRAME peptide coated splenocytes (CFSE); set-up: species or system HHD transgenic mice; conditions: plasmid prime, peptide boost

| Compound | Half-maximal Binding (mM) (HLA-A*0201 [1]) | % binding relative to native PRAME425-433 (HLA-A*0201 [2]) | In vivo cytotoxicity against native PRAME epitope [3] |
| --- | --- | --- | --- |
| CC[C@H](C)[C@H](NC(=O)[C@H](CCCCN)NC(=O)[C@H](CCC(=O)O)NC(=O)[C@H](CO)NC(=O)[C@H](C)NC(=O)[C@@H](N)CC1CCCCC1)C(=O)N[C@@H](Cc1ccccc1)C(=O)N[C@@H](Cc1ccc(O)cc1)C(=O)N[C@H](C(=O)O)C(C)C [SSX2 41-49 (K41(Cha))] (H-[Cha]ASEKIFYV-OH) | N/B |  |  |
| Phe P1 analog: PRAME425-433 (SLLQHLIGL) analog, Phe for the Ser at the P1 position (FLLQHLIGL) |  | exceeded that range on the high side | capable of expanding the immunity against the native epitope |
| CC[C@H](C)[C@H](NC(=O)[C@H](CCCCN)NC(=O)[C@H](CCC(=O)O)NC(=O)[C@H](CO)NC(=O)[C@H](Cc1cccc2ccccc12)NC(=O)[C@@H](N)CCCCN)C(=O)N[C@@H](Cc1ccccc1)C(=O)N[C@@H](Cc1ccc(O)cc1)C(=O)N[C@H](C(=O)O)C(C)C [SSX2 41-49 (A42(Nal-1)), KNal-1SEKIFYV] | N/B |  |  |
